Patent US20050220834A1 (priority 2004, published 2005)

Test system: bipolaris sorokininan
Assay: Seed treatment: disease prevention and yield keeping on wheat
Assay type: in vivo
Conditions: treated seeds
Procedure: Seeds treaed with FA whose weight amount to 0.2% seed by weight have disease prevention effect for bipolaris sorokininan and yield keeping effect. After the seeds were treated, the wheat developed well and occurrence of powdery mildew was less compared to blank. Yield keeping effect of mixture of FAn and triazolone was improved from 7.79% of single use of triazolone to 10.67%.

CC(C)(C)C(=O)C(Oc1ccc(Cl)cc1)n1cncn1 (stereo not shown) [triazolone]
yield keeping effect (%): 7.79%
